The results in this text go back to patent US6964975B2, “Isoxazole and thiazole compounds and use thereof as medicine” (Kirin Beer Kabushiki Kaisha, priority 2000, dated 2005).

What is called IC50 is the concentration that gives 50% inhibition. A higher IC50 goes with a need for much substance.

One data set relates to Human EDG-2/HepG2 cells. Kind of data set: Inhibitory activity on LPA-accelerated [3H] thymidine incorporation (cell proliferation). Type of data set: cell-based. The following applies: 50% inhibition of LPA-induced increase of [3H] thymidine incorporation. In a few lines:
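HepG2 cells stably overexpressing human EDG-2, serum-starved 24 h, received compound immediately before LPA and were cultured 16 h, followed by 8 h [3H]thymidine labelling. LPA-stimulated proliferation was taken as incorporation in LPA wells minus LPA-free wells.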
A general note: Uptake of a labelled nucleoside into DNA is a usual measure of proliferation.

The subject of data set [1] is lactic acid induced peripheral circulatory disturbance in rats. Kind of data set: Rat model of lactic acid induced peripheral circulatory disturbance (lesion score). Type of data set: in vivo. The following applies: for Score of lesion: mean ± S.E. An excerpt: Peripheral arterial obstructions including clinical arteriosclerosis obliterans (ASO) are, in common, chronic diseases, which often cause ulcer or necrosis in lower limbs, and lesions are worsened by arterial thrombotic infarcts upstream of the lesions. Therefore, the target of the treatment for the above diseases is to inhibit the progress and to eliminate the ischemic symptoms. Antiplatelet drugs and anticoagulants are often used therefor. […] ID3016511 (Compound 115), which is one of the compounds according to the present invention, is selected as an example and administered daily to a rat model of lactic acid induced peripheral circulatory disturbance used as an animal model of peripheral arterial obstruction to examine the drug's therapeutic effect.
13-week old Wister male rats were used in test groups of 10 rats. Each rat was fixed in a face-up position under anesthesia by 40 mg/kg of intraperitoneally administered pentobarbital sodium. The left femoral region was then incised and 0.1 ml of 5% lactic acid solution was administered into the femoral artery. Adhesives were applied dropwise at the lactic acid administered site for blood stanching. Thereafter, a penicillin G solution was added dropwise to prevent infections and the incised part was sutured. […] The solvent and the test solution were orally administered. Administration was carried out 2 hours before lactic acid administration and, thereafter, twice a day at an interval of at least 7 hours for 13 days repeatedly. […] The positive control material was administered 3 hours before the lactic acid administration, and it was repeatedly orally administered twice a day for 13 days in the same way as the above test compound. The progress of lesion on legs and feet was observed 3, 7, and 14 days after the lactic acid administration and the results were scored from 0 to 4 based on the following criteria:
1: nigrities limited to the tiptoe
2: nigrities reaching toe
Each toe was scored and the sum of scores for each toe was determined as a lesion index. When the damage reached the sole, 5 points were added.
The significant difference between the control group and the test material group was assayed by the non-parametric Dunnet's test. The significant difference between the control group and the positive control material group was assayed by the non-parametric Wilcoxon's test.

A short description of data set [2]: Solubility in water (remark). Type of data set: physicochemical. As to conditions: white powder.
Data set [3] concerns ovarian carcinoma cells (SKOV3). The data set is described as follows: Inhibitory activity against BrdU incorporation, LPA-stimulated ovarian carcinoma cells. Type of data set: cell-based, human. The following applies: SKOV3, LPA 3 μM, FIG. 2B. Here is the method: (§1) Human brain tumor cells (U87 MG) and ovarian carcinoma cells (SKOV3) suspended in serum-free DMEM were plated on a 96-well plate. 24 hours later, Compound 115 and LPA (3 μM) were added and the mixture was cultured for 16 hours, followed by the BrdU addition. Culture was continued for 3 hours from the addition of BrdU. Thereafter, the incorporation of BrdU into the cells was assayed based on the absorbance at 450 nm using the Cell proliferation ELISA system (RPN250, Amersham LIFE SCIENCE).

In data set [4] the test system is Human brain tumor cells (U87 MG). The data set is described as follows: Inhibitory activity against BrdU incorporation, LPA-stimulated brain tumor cells. The following applies: LPA 3 μM, FIG. 2A. Type of data set: cell-based. Here is the method:
as §1

The next data set addresses T1, human EDG-2 (Homo sapiens, UniProt Q92633).
T1 construct: cDNA of the cloned human EDG-2 was introduced into pEFneo, which is an animal expression vector; expressed in transfected cells; host or cells: HepG2
Kind of data set: Inhibitory activity on LPA-induced elevation of intracellular Ca2+ level. Type of data set: cell-based. The following applies: 50% inhibition of elevation of intracellular Ca2+ level by LPA, human EDG-2/HepG2 cells, fura-2. In a few lines:
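Stably transfected HepG2 cells loaded with fura-2/AM (45 min, room temperature) in 0.1% BSA HEPES buffer. Test compound added before LPA, and the LPA-evoked intracellular Ca2+ rise measured fluorometrically. IC50 for inhibition derived.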

T1 sequence (Q92633 whole entry): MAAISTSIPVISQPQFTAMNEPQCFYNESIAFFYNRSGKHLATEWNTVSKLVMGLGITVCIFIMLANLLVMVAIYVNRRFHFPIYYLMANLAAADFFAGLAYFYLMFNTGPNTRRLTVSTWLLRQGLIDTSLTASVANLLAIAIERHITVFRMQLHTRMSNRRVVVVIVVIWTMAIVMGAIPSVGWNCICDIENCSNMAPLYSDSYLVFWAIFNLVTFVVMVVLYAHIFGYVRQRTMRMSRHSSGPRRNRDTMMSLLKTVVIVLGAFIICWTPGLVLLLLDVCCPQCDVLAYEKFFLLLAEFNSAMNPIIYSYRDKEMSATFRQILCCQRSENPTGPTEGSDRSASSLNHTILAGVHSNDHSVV

In the case of `COC(=O)CCSCc1ccc(-c2onc(C)c2NC(=O)OC(C)c2ccccc2Cl)cc1` (stereo not drawn) [Compound 115, Methyl 3-({4-[4-({[1-(2-chlorophenyl)ethoxy]carbonyl}amino)-3-methyl-5-isoxazolyl]-benzyl}sulfanyl)propanoate], the IC50 in the data set on Human EDG-2/HepG2 cells fell in the range of 10 to 30 nM; against human EDG-2, 1000 to 3000 nM. Moreover, the Score of lesion in data set [1] (20 mg/kg twice/day p.o., 3 days after lactic acid injection) is given as 2.6 ± 0.8; in data set [1] (20 mg/kg twice/day p.o., 7 days after lactic acid injection), 4.3 ± 1.0; in data set [1] (20 mg/kg twice/day p.o., 14 days after lactic acid injection), 6.9 ± 1.4; in data set [1] (60 mg/kg twice/day p.o., 7 days after lactic acid injection), 1.9 ± 0.5. The “Progress of lesions in the feet and legs” value in data set [1] (dose of 60 mg/kg) is reported as “inhibited the progress of lesions”. Also, the “Progress of lesion versus control group” value in data set [1] (repeated administration of 20 mg/kg for 14 days) was “equivalent level of progress with the control group”. For the same molecule, the “Solubility in water” value in data set [2] is reported as “poor solubility in water”. Also, the “Concentration at which proliferation (BrdU incorporation) was inhibited in a concentration dependent manner” value in data set [3] and in data set [4] was at least 0.3 µM throughout.

As for `CCc1noc(-c2ccc(CSCCC(=O)OC)cc2)c1NC(=O)OC(C)c1ccccc1F` (stereo not drawn) [Compound 165, Methyl 3-({4-[3-ethyl-4-({[1-(2-fluorophenyl)ethoxy]carbonyl}amino)-5-isoxazolyl]-benzyl}sulfanyl)propanoate], the IC50 with Human EDG-2/HepG2 cells fell in the range of 100 to 300 nM; on human EDG-2, 3000 to 10000 nM.

On to `CCc1noc(-c2ccc(CSCCC(=O)OC)cc2)c1NC(=O)OC(c1ccccc1)C(F)(F)F` (stereo not drawn) [Compound 166, Methyl 3-{[4-(3-ethyl-4-{[(2,2,2-trifluoro-1-phenylethoxy)carbonyl]amino}-5-isoxazolyl)-benzyl]sulfanyl}propanoate], for which the IC50 in the data set with Human EDG-2/HepG2 cells turned out to be 100 nM; against human EDG-2, 10000 nM.

Take `CCc1noc(-c2ccc(CSCCC(=O)O)cc2)c1NC(=O)OC(C)c1ccccc1F` (stereo not drawn) [Compound 167, 3-({4-[3-Ethyl-4-({[1-(2-fluorophenyl)ethoxy]carbonyl}amino)-5-isoxazolyl]benzyl}-sulfanyl)propanoic acid]: the values for the IC50 with Human EDG-2/HepG2 cells and at human EDG-2 were 30 to 100 nM and 3000 to 10000 nM, respectively.

With `CCOC(=O)COCc1ccc(-c2onc(C)c2NC(=O)OC(C)c2ccccc2Cl)cc1` (stereo not drawn) [Compound 168, Ethyl 2-({4-[4-({[1-(2-chlorophenyl)ethoxy]carbonyl}amino)-3-methyl-5-isoxazolyl]-benzyl}oxy)acetate], the values for the IC50 in the data set on Human EDG-2/HepG2 cells and at human EDG-2 were 1000 nM and 3000 to 10000 nM, respectively.

With `CCOC(=O)COCc1ccc(-c2onc(C)c2NC(=O)OC(c2ccccc2)C(F)(F)F)cc1` (stereo not drawn) [Compound 169, Ethyl 2-{[4-(3-methyl-4-{[(2,2,2-trifluoro-1-phenylethoxy)carbonyl]amino}-5-isoxazolyl)-benzyl]oxy}acetate], the IC50 lay in the range of 1000 to 3000 nM in the data set on Human EDG-2/HepG2 cells and 3000 to 10000 nM on human EDG-2.
